In series [1] the test system is HAV HM175. Kind of series: Plaque reduction assay against HAV HM175. The series is classed as cell-based, hepatitis A virus HM 175. Particulars: hepatitis A virus HM 175, plaque reduction.
In series [2] the test system is ED-43/SG-Feo (VYG) replicon of HCV genotype 4a. Kind of series: Antiviral bioassay against ED-43/SG-Feo. The series is classed as cell-based. Particulars: for IC50: HCVcc genotype 4; for mean % of reduction, HCVcc genotype 4: nontoxic dose of compound.
Series [3] deals with HAdV7. Kind of series: Plaque reduction assay against adenovirus 7. The class given is cell-based, human adenovirus type 7. Particulars: for mean % of reduction, adenovirus type 7: nontoxic dose of compound.
Series [4] has as its system Vero cell line. Description: Cytotoxicity test on Vero cell line. The class given is cell-based. Particulars: herpes simplex virus table; host cells Vero.
Series [5] has as its system FRHK-4 cell line. Description: Cytotoxicity test on FRHK-4 cell line. The class given is cell-based. To be noted: hepatitis A virus HM 175 columns; host cells FRHK4.
In series [6] the test system is Huh 7.5 cell line. Kind of series: Cytotoxicity test on Huh 7.5 cell line. Particulars: HCVcc genotype 4 columns; host cells Huh 7.5. The class given is cell-based.
The subject of series [7] is Hep2 cell line. Description: Cytotoxicity test on Hep2 cell line. The series is classed as cell-based. Particulars: adenovirus type 7 columns; host cells Hep-2.
Series [8] concerns HSV-1. To be noted: for IC50: herpes simplex virus, plaque reduction; for mean % of reduction, herpes simplex virus: nontoxic dose of compound.
For series [9], the system named is ADV7. To be noted: cited from earlier work.

SMILES strings stand for the structures. ≈ marks a conversion by molar mass, not a printed value. Where “and” joins values, the source holds several entries; their conditions need not be identical. Equal values may be shown once.

On to `O=C(CNc1nc(NS(=O)(=O)c2ccccc2)ncc1-c1nc2ccccc2s1)c1ccc(Br)cc1` [9a, N-(5-(Benzo[d]thiazol-2-yl)-4-((2-(4-bromophenyl)-2-oxoethyl)amino)pyrimidin-2-yl)benzenesulfonamide], for which the IC50 in series [1] came out at 78 µg/mL (≈ 134 µM); in series [2], 120 µg/mL (≈ 207 µM); in series [3] (adenovirus type 7, plaque reduction), 120 µg/mL (≈ 207 µM); in series [8] it was 63 µg/mL (≈ 109 µM). Besides, the “mean % of reduction, HCVcc genotype 4” value in [2] is 50 ± 0.9%. Besides, in series [3], the “mean % of reduction, adenovirus type 7” value was determined as 50 ± 0.9%. Besides, the CC50 in series [4] came out at 270 µg/mL (≈ 465 µM); in [5], 240 µg/mL (≈ 413 µM); in series [6], 250 µg/mL (≈ 431 µM); in series [7] it was 260 µg/mL (≈ 448 µM). Besides, in [8], the “mean % of reduction, herpes simplex virus” value is 90% and 90 ± 2.5%.

Regarding `O=C(CNc1nc(NS(=O)(=O)c2ccccc2)ncc1-c1nc2ccccc2s1)c1ccc(Cl)cc1` [9b, N-(5-(Benzo[d]thiazol-2-yl)-4-((2-(4-chlorophenyl)-2-oxoethyl)amino)pyrimidin-2-yl)benzenesulfonamide], the results for the IC50 in series [1], in [2] and in series [8] were 86 µg/mL (≈ 160 µM), 86 µg/mL (≈ 160 µM) and 74 µg/mL (≈ 138 µM), respectively. Also, in [2], the “mean % of reduction, HCVcc genotype 4” value was 60 ± 1.2%. In addition, in series [3], the “mean % of reduction, adenovirus type 7” value was determined as 40 ± 0.8%. For the same compound, the cytotoxic concentration (CC50) was 240 µg/mL (≈ 448 µM) in [4], 230 µg/mL (≈ 429 µM) in [5] and 250 µg/mL (≈ 466 µM) in series [6]. Besides, in [8], the “mean % of reduction, herpes simplex virus” value is 70% and 70 ± 1.5%.

As for `NC(=O)c1ncn([C@@H]2O[C@H](CO)[C@@H](O)[C@H]2O)n1` [ribavirin], the EC50 in series [9] is 27.8 µg/mL (≈ 114 µM).

Values taken from PMC6990646 (ACS Omega, 2020).
